Key:
Type in all cases: cell-based
[1] = target: T1, GSPT1 (eRF3a) (Homo sapiens, UniProt P15170+Q96SW2); assay: Western blot assay in PC-3 cells: GSPT1 (eRF3a); conditions: different concentrations at 24 h (FIG. 9)
T1 construct: The downregulation of SRD5A3 and GSPT1 (eRF3a) proteins in PC-3 and HepG2 cells by C59; endogenous in cells; host or cells: 22Rv1, PC-3, HepG2
Description: Example 84: Western Blot Assay of Compound C59 in 22Rv1, PC-3, and HepG2 Cells
(1) Materials: 22Rv1, PC-3, and HepG2 cell, anti-SRD5A1 antibody (ab167606), anti-SRD5A2 antibody (ab124877), anti-SRD5A3 antibody (PA5-107029), anti-androgen receptor (AR) antibody (CST, No. 5153), anti-GSPT1 antibody (Abcam, ab234433), anti-GADPH antibody (CST, No. 5174), anti-c-Myc antibody (CST, No. 8583), anti-α-tublin antibody (CST, No. 2125), anti-rabbit IgG, HRP-linked antibody (CST, No. 7074), electrophoresis device and membrane transfer device (LIUYI, BEIJING; DYCZ-24DN)
Cell seeding: 22Rv1 (Cell Bank of the Chinese Academy of Sciences, TCHu100), PC-3 (Cell Bank of the Chinese Academy of Sciences, SCSP-532) and HepG2 cells (Cell Bank of the Chinese Academy of Sciences, TCHu72) were subcultured and trypsinized to prepare 6×10^5 cells/mL suspensions, seeded on 6-well plates (3 mL/well), and cultured overnight in a cell incubator at 5% CO2 and 37° C. […]
Protein quantification: The protein was quantified using a BCA protein quantification kit. […]
Western immunoblot assay (or Western blot, WB): SDS-PAGE gel at a proper concentration was prepared according to the molecular weight of the target protein: for example, the concentration of the separation gel was 8% and the concentration of the stacking gel was 5%. The loading volume was adjusted according to the protein quantification results. […]

[2] = test system: DU 145 cells; assay: Anti-proliferative toxicity of C63 in tumor cell lines (CCK8): DU 145; conditions: Homo sapiens, 72 h, 3 days, read-out: Inhibition rate
Method: (§1) Example 83: Detection of Anti-Proliferative Toxicity of C63 in Some Tumor Cell Lines
DU 145 cells (purchased from the Cell Bank of the Chinese Academy of Sciences, Cat. No. SCSP-5024) were subcultured in a culture medium (MVEM medium+[…] penicillin-streptomycin dual-antibiotic solution+10% fetal bovine serum) in an incubator at 5% carbon dioxide and 37° C.
DU 145 cells were seeded at 5000 cells/well (90 μL) on a 96-well plate and cultured for 24 h.
(§2) 10 mM compound stock solutions were prepared in DMSO.
(§3) The compound stock solution was diluted with DMSO to give DMSO solutions 1-9 at concentrations of 0 μM, 2500 μM, 500 μM, 100 μM, 20 μM, 4 μM, 0.8 μM, 0.16 μM, and 0.032 μM.
(§4) 2 μL of each of solutions 1-9 was added to 98 μL of the medium to give mixed solutions 11-19 of the compound and the medium.
(§5) 10 μL of each of solutions 11-19 was added to the above cell seed solution to give a total volume of 100 μL (90 μL+10 μL).
(§6) The concentrations of the compound in the wells were 0 μM, 5.0 μM, 1.0 μM, 0.2 μM, 0.04 μM, 0.008 μM, 0.0016 μM, 0.00032 μM, and 0.000064 μM. All concentrations were in triplicate.
(§7) After the above-treated cells were cultured for 3 days, 10 μL of the CCK8 solution (DOJINDO, Cat. No. PF725) was added to each well. The plate was incubated in an incubator at 37° C. for 1-4 h and then detected on a microplate reader for the reading at 450 nm.

[3] = test system: MDA-MB-231 cells; assay: Anti-proliferative toxicity of C63 in tumor cell lines (CCK8): MDA-MB-231; conditions: Homo sapiens, 72 h, 3 days, read-out: Inhibition rate
Method: as §1
MDA-MB-231 cells (purchased from the Cell Bank of the Chinese Academy of Sciences, Cat. No. TCHu227) were subcultured in a culture medium (L15 medium+1% penicillin-streptomycin dual-antibiotic solution+10% fetal bovine serum) in an incubator at 37° C.
MDA-MB-231 cells were seeded at 5000 cells/well (90 μL) on a 96-well plate and cultured for 24 h.
as §2, §3, §4, §5, §6, §7

[4] = test system: HGC-27 cells; assay: Anti-proliferative toxicity of C63 in tumor cell lines (CCK8): HGC-27; conditions: Homo sapiens, 72 h, 3 days, read-out: Inhibition rate
Method: as §1
HGC-27 cells (purchased from the Cell Bank of the Chinese Academy of Sciences, Cat. No. TCHu22) were subcultured in a culture medium (RPMI-1640 medium+1% penicillin-streptomycin dual-antibiotic solution++20% fetal bovine serum) in an incubator at 5% carbon dioxide and 37° C.
HGC-27 cells were seeded at 3000 cells/well (90 μL) on a 96-well plate and cultured for 24 h.
as §2, §3, §4, §5, §6, §7

T1 sequence (P15170 1-637 isoform P15170-3): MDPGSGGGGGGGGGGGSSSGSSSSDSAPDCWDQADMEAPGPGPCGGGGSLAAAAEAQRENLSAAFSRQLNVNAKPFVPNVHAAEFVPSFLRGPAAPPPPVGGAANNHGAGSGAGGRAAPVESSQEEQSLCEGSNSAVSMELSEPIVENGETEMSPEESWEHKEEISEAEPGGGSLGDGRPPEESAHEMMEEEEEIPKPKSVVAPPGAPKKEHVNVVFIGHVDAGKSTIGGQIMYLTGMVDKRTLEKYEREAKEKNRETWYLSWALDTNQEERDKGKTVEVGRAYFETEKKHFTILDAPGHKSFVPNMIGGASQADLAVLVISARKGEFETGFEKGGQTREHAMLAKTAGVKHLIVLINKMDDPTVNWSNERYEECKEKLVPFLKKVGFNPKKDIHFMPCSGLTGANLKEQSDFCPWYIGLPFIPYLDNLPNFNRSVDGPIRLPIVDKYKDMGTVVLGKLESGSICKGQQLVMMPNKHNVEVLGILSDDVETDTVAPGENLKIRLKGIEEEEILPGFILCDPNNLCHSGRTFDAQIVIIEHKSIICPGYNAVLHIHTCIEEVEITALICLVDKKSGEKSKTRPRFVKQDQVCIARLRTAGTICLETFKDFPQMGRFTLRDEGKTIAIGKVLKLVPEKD
T1 sequence (Q96SW2 whole entry): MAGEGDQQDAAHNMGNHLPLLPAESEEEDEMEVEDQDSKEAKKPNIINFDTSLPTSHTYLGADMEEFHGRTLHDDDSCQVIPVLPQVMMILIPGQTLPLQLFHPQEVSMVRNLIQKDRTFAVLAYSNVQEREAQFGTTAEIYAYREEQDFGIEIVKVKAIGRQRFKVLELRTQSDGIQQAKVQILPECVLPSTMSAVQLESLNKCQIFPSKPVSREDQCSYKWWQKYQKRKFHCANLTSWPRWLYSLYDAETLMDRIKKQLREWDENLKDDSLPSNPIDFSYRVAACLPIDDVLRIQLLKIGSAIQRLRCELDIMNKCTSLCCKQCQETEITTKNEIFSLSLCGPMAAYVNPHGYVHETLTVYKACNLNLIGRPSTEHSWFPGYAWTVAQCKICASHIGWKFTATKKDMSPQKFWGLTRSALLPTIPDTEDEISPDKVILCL
T1 sequence (Q16531 whole entry partner): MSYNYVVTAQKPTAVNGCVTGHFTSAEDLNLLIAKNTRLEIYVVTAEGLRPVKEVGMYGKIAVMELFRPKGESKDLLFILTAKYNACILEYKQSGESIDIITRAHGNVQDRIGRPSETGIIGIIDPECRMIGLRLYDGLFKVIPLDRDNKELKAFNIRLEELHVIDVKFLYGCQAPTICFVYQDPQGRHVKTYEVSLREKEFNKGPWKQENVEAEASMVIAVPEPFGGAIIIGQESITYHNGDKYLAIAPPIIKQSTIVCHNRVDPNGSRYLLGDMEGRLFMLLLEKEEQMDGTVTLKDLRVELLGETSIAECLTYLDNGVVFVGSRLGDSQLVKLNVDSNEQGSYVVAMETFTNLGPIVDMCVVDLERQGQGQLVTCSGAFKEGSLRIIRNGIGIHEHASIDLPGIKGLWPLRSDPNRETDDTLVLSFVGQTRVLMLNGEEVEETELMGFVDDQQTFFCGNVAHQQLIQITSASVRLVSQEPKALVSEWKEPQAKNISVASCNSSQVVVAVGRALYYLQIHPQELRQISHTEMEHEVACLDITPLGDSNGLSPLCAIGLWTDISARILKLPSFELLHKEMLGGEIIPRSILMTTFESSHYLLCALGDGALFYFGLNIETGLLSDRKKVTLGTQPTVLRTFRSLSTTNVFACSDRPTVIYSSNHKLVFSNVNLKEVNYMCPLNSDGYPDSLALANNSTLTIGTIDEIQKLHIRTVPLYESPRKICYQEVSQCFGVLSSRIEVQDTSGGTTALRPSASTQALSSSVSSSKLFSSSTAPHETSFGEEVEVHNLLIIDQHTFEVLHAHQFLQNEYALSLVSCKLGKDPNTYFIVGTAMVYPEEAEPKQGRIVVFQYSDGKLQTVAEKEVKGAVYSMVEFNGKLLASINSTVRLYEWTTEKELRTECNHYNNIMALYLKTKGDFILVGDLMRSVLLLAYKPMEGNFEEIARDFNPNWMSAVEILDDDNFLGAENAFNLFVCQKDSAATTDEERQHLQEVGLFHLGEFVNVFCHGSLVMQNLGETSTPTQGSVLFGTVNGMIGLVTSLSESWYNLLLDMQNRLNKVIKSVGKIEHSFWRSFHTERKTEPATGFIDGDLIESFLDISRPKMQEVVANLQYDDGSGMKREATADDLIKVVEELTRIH

For C[C@]12C=CC(=O)N[C@@H]1CC[C@@H]1[C@@H]2CC[C@]2(C)[C@@H](C(=O)Nc3cccc(N[C@@H]4CCC[C@@H](Nc5cccc6c5C(=O)N(C5CCC(=O)NC5=O)C6=O)C4)c3)CC[C@@H]12 (stereo partly drawn) [C59, N-(3-(N—(N-(4-(2-(3-(2,6-dioxopiperidine))-isoindole-1,3-dione))-1R,3R-cyclohexanediamine))phenyl)-3-oxo-4-aza-5α-androst-1-ene-17β-carboxamide], the “downregulation of GSPT1 (eRF3a) protein (Western blot)” value [1] was “downregulation”.

With C[C@]12C=CC(=O)N[C@@H]1CC[C@@H]1[C@@H]2CC[C@]2(C)[C@@H](C(=O)Nc3cccc(N[C@@H]4CCC[C@@H](Nc5cccc6c5C(=O)N([C@H]5CCC(=O)NC5=O)C6=O)C4)c3)CC[C@@H]12 [C63, N-(3-(N—(N-(4-(2-(3S-(2,6-dioxopiperidine))-isoindole-1,3-dione))-1R,3R-cyclohexanediamine))phenyl)-3-oxo-4-aza-5α-androst-1-ene-17β-carboxamide] the inhibition at 64 pM ([2]; 0.000064 μM) was 22.1%, the inhibition at 0.00032 µM ([2]; 0.000320 μM) was 20.5% and the inhibition at 0.0016 µM ([2]; 0.001600 μM) was 22.7%. The inhibition at 0.008 µM ([2]; 0.008000 μM) was 48.4%, the inhibition at 0.04 µM ([2]; 0.040000 μM) was 60.9% and the inhibition at 0.2 µM ([2]; 0.200000 μM) was 74.3%. The inhibition at 1 µM ([2]; 1.000000 μM) was 81.9%, the inhibition at 5 µM ([2]; 5.000000 μM) was 82.4% and the inhibition at 64 pM ([3]; 0.000064 μM) was 27.6%. The inhibition at 0.00032 µM ([3]; 0.000320 μM) was 62.8%, the inhibition at 0.0016 µM ([3]; 0.001600 μM) was 75.6% and the inhibition at 0.008 µM ([3]; 0.008000 μM) was 79.3%. For the same compound, the inhibition at 0.04 µM ([3]; 0.040000 μM) was 80.1%, the inhibition at 0.2 µM ([3]; 0.200000 μM) was 79.9% and the inhibition at 1 µM ([3]; 1.000000 μM) was 78.8%. For the same compound, the inhibition at 5 µM ([3]; 5.000000 μM) was 80.4%, the inhibition at 64 pM ([4]; 0.000064 μM) was 7.74% and the inhibition at 0.00032 µM ([4]; 0.000320 μM) was 9.52%. For the same compound, the inhibition at 0.0016 µM ([4]; 0.001600 μM) was 80%, the inhibition at 0.008 µM ([4]; 0.008000 μM) was 94.2% and the inhibition at 0.04 µM ([4]; 0.040000 μM) was 97.1%. For the same compound, the inhibition at 0.2 µM ([4]; 0.200000 μM) was 98.3%, the inhibition at 1 µM ([4]; 1.000000 μM) was 98.2% and the inhibition at 5 µM ([4]; 5.000000 μM) was 97.7%.
